In test [1] the test system is Mycobacterium tuberculosis. Description: Antitubercular activity against isoniazid-resistant Mycobacterium tuberculosis H37Rv ATCC 35822 after 7 days by resazurin microtiter assay. The class given is functional. As to conditions: H37Rv ATCC 35822, 168 h. A general note: Alamar Blue is a resazurin reagent that responds to reducing activity.
The test system of test [2] is Mycobacterium tuberculosis. Description: Antitubercular activity against rifampicin-resistant Mycobacterium tuberculosis H37Rv ATCC 35338 after 7 days by resazurin microtiter assay. The class given is functional. As to conditions: H37Rv ATCC 35338, 168 h.

In brackets after ≈: the same amount, converted by molar mass.

As a reminder, the MIC is the least concentration at which growth counts as inhibited. Read a high MIC as a need for much substance. Regarding `CCCCCCCC/C=C\CCCCCCCC(=O)N1CCCCC1`, the MIC in test [1] amounted to 12.5 µg/mL (≈ 35.8 µM); in test [2] it was 25 µg/mL (≈ 71.5 µM).

As to `CCCCCCCC/C=C\CCCCCCCC(=O)N1CCOCC1`, the minimum inhibitory concentration (MIC) in test [1] came to 6.25 µg/mL (≈ 17.8 µM); in test [2], 12.5 µg/mL (≈ 35.6 µM).

As to `CCCCCC[C@@H](O)C/C=C\CCCCCCCC(=O)NCc1ccccc1`, the MIC in test [1] and in test [2] was 12.5 µg/mL (≈ 32.2 µM) each time.

As for `CCCCCC[C@@H](O)C/C=C\CCCCCCCC(=O)N[C@H](C)c1ccccc1`, the MIC in test [1] was 12.5 µg/mL (≈ 31.1 µM); in test [2], 25 µg/mL (≈ 62.2 µM).

Take `CCCCCC[C@@H](O)C/C=C\CCCCCCCC(=O)N[C@@H](C)c1ccccc1`: the MIC in test [1] turned out to be 100 µg/mL (≈ 249 µM); in test [2], 50 µg/mL (≈ 124 µM).

In the case of `CCCCCC[C@@H](O)C/C=C\CCCCCCCC(=O)N1CCCC1`, the MIC in test [1] and in test [2] was 6.25 µg/mL (≈ 17.8 µM) each time.

For the molecule `CCCCCC[C@@H](O)C/C=C\CCCCCCCC(=O)N1CCOCC1`, the minimal inhibitory concentration (MIC) in test [1] amounted to 6.25 µg/mL (≈ 17 µM); in test [2], 12.5 µg/mL (≈ 34 µM).

Turning to `CCCCC/C=C\C/C=C\CCCCCCCC(=O)N[C@H](C)c1ccccc1`, the figures for the MIC in test [1] and in test [2] were 12.5 µg/mL (≈ 32.6 µM) and 25 µg/mL (≈ 65.2 µM), respectively.

For the molecule `CCCCC/C=C\C/C=C\CCCCCCCC(=O)N[C@@H](C)c1ccccc1`, the MIC stood at 6.25 µg/mL (≈ 16.3 µM) in test [1] and 12.5 µg/mL (≈ 32.6 µM) in test [2].

For the molecule `CCCCC/C=C\C/C=C\CCCCCCCC(=O)N1CCCC1`, the MIC in test [1] and in test [2] was 12.5 µg/mL (≈ 37.5 µM) each time.

`CCCCCCCCCCCCCCCC(=O)N[C@H](C)c1ccccc1`: the MIC in test [1] and in test [2] was more than 100 µg/mL each time.

Regarding `CCCCCCCCCCCCCCCC(=O)N[C@@H](C)c1ccccc1`, the MIC in test [1] and in test [2] was more than 100 µg/mL each time.

On to `CCCCCCCCCCCCCCCC(=O)N1CCCC1`, for which the MIC in test [1] and in test [2] was 25 µg/mL (≈ 80.8 µM) each time.

With `CCCCCCCCCCCCCCCC(=O)N1CCCCC1`, the MIC in test [1] and in test [2] was 25 µg/mL (≈ 77.3 µM) in each case.

With `CCCCCCCCCCCCCCCCCC(=O)N[C@H](C)c1ccccc1`, the MIC in test [1] and in test [2] was more than 100 µg/mL throughout.

Consider `CCCCCCCCCCCCCCCCCC(=O)N[C@@H](C)c1ccccc1`, for which the MIC in test [1] and in test [2] was more than 100 µg/mL in each case.

For `CCCCCCCC/C=C\CCCCCCCC(=O)NCc1ccccc1`, in test [1], the MIC worked out at 100 µg/mL (≈ 269 µM).

Regarding `CCCCCCCC/C=C\CCCCCCCC(=O)N[C@H](C)c1ccccc1`, the MIC is 12.5 µg/mL (≈ 32.4 µM) in test [1] and 50 µg/mL (≈ 130 µM) in test [2].

Turning to `CCCCCCCC/C=C\CCCCCCCC(=O)NC(C)c1ccccc1` (configuration not stated), the MIC in test [2] worked out at 100 µg/mL (≈ 259 µM).

As to `CCCCCCCC/C=C\CCCCCCCC(=O)N1CCCC1`, the MIC came out at 6.25 µg/mL (≈ 18.6 µM) in test [1] and 12.5 µg/mL (≈ 37.2 µM) in test [2].

Take `CCCCCCCC/C=C\CCCCCCCC(=O)NCCO` [OLEOYLETHANOLAMIDE]: the MIC in test [1] was 12.5 µg/mL (≈ 38.4 µM); in test [2], 25 µg/mL (≈ 76.8 µM).

For the molecule `CCCCCCCCCCCCCCCC(=O)NCCO` [PALMIDROL], the MIC in test [1] and in test [2] was more than 100 µg/mL each time.

The values are drawn from ChEMBL document CHEMBL1221262, “Synthesis and antituberculosis activity of new fatty acid amides” (2010).
